Experimental findings from patent publication US20090247520A1, “INHIBITORS OF ANTIGEN RECEPTOR-INDUCED NF-kappa B ACTIVATION” (The Burnham Institute for Medical Research, priority 2008, published 2009) are described below.

The test system of assay [1] is TNF-induced NF-κB reporter gene activity. Put plainly: TNF-induced NF-κB reporter counter-screen in HEK293-NFκB-Luc cells. The settings on record: TNF 10 ng/mL; CID-2858522 at concentrations as high as 4 μM. The format is cell-based. The method, then:
(§1) (A) Structures of two hit compounds, CID-2858522 (left) and CID-2998237 (right) are shown; (B, C) 293-NF-κB-luc cells were pretreated for 2 hrs with various concentration of either CID-2858522 (B) or CID-29982387 (C) and then stimulated with TNF (10 ng/mL) or PMA/lonomycin (10 ng/mL; 5 ng/mL) for 16 h. Luciferase activity was measured and data were expressed as a percentage relative to control treatment with DMSO only (mean±SD; n=3). (D) 293-NF-κB-luc cells were pretreated for 2 h with various concentrations of CID-2858522 or CID-2998237, then stimulated with PMA/lonomycin for 16 h. IL-8 release into the medium was measured, expressing data as a percentage relative to control cultures treated with DMSO (mean±SD; n=3). (E) 293-NF-κB-luc cells were pretreated with CID-2858522 and then stimulated with PDBu for 16 h, IL-8 production and NF-κB luciferase activity were measured as above. (F) 293-NF-κB-luc cells were pretreated for 2 h with various concentrations of CID-2858522 or a PKC inhibitor (Bisindolylmaleimide I) at 1 μM followed by PMA/Ionomycin (10 ng/mL) stimulation for 2 h, then p65-DNA-binding activity was measured in nuclear extracts (10 μg protein), expressing data as fold-increase relative to unstimulated cells (mean±SD; n=3).
Counter Screening and Secondary Assays. […] Luciferase activity was measured using Britelite kit (Perkin Elmer). […]
For orientation: Counterscreens check selectivity or assay interference.

Assay [2] concerns PMA/Ionomycin-induced NF-κB reporter gene activity. Put plainly: NF-κB luciferase reporter gene assay, PMA/Ionomycin-stimulated HEK293-NF-κB-luc cells. The assay is classed as cell-based. The settings on record: for inhibition of PMA/Ionomycin-induced NF-κB luciferase activity: HEK293; for IC50: Table II, read-out: IC50, Inhibition of antigen receptor-mediated Nf-κB. From the text:
The strategy for compound library screening entailed using phorbol ester (phorbol myristic acetate [PMA]) and Ca^2+-ionophore Ionomycin to achieve PKC activation, mimicking the initiating events in the antigen receptor pathway. For convenience, we used HEK293 epithelial cells, in which it has previously been shown by siRNA-mediated gene silencing and transfection of dominant-negative mutants that PMA/Ionomycin-induced NF-κB activation is dependent on CARMA1, Bcl-10, and MALT. HEK293 cells were stably transfected with a luciferase reporter gene driven by a NF-κB responsive promoter, and the responsiveness of this integrated promoter to various NF-κB inducing stimuli was confirmed, including PMA/Ionomycin and TNF. Using these cells, 96- and 384-well plate-based high throughput screening (HTS) assays were established, with good assay performance characteristics (Z′>0.5) (PubChem AID=1384). We initially screened 53,280 chemical compounds at an average concentration of 5 μM, of which 519 primary hits were obtained (based on cut-off of 50% inhibition). Of these, 248 confirmed upon repeat testing (FIG. 1).
Cell engineering. HEK293 cells were co-transfected with pUC13-4xNFκB-Luc and p-TK-puromycin-resistance plasmids. Stable clones were selected by culture in Dulbecco's Modified Eagle's Media (InVitrogen) supplemented with 10% heat-inactivated fetal bovine serum (FBS) (Hyclone), 1% v/v penicillin-streptomycin (InVitrogen) containing 1 μg/mL puromycin. Individual clones were tested for responsiveness to PMA/Ionomycin- and to TNF-induced NF-κB reporter gene activity, and a clone was selected for HTS.
HTS. NF-κB-luciferase expressing HEK293 cells were seeded at […] per well in white 96 well plates (Greiner Bio-One) in 90 μl of DMEM and incubated overnight. 10 μl of compound-containing solution was added to each well (final 1.5 μg/mL in 1% DMSO) using a liquid handler (Biomek™ FX; Beckman Coulter). After 2 h incubation, cells were stimulated using 11 μl of a PMA (final 100 ng/mL; Calbiochem) and ionomycin (final 50 ng/mL; Calbiochem) in DMEM. Cell plates were incubated for 16 h before media was removed and 40 μl of 0.5× passive lysis buffer (Promega Corp.) was added to cell plates. Plates were allowed to stand at room temperature for at least 15 minutes before adding 40 μl of 0.125× luciferin substrate (Promega Corp.) to each well. Plates were analyzed within 30 seconds with a Criterion Analyst™ using the luminescence method (0.1 second read/well).
Several compounds synthesized by the methods described herein were tested for their efficacy at inhibiting Nf-κB activation.
In general terms: In a reporter assay the amount or activity of a reporter protein is the signal.

Assay [3] relates to PMA/Ionomycin-stimulated IL-8 production. Put plainly: PMA/Ionomycin-stimulated IL-8 production by HEK293 reporter cells (ELISA). The assay is classed as cell-based, human. The settings on record: CID-2998237 at concentrations as high as 4 μM. As for the experimental part: as §1
Lymphokine measurements. Human IL-2 or IL-8 levels in culture medium were measured by Enzyme-Linked Immunosorbent Assays (ELISAs), using BD OptEIA ELISAs (BD Biosciences, San Diego, Calif.), according to the manufacturer's protocol, using 96-well ELISA plates (BD Biosciences) and measuring absorbance within 30 minutes of initiating reactions using a SpectraMax 190 spectrophotometer (Molecular Devices).
Background: ELISA stands for enzyme-linked immunosorbent assay.

On to `COC(=O)C1=C(CN2CCCc3ccccc32)NC(=O)NC1c1ccc(F)cc1` (centres unmarked) [CID-2998237], for which the “inhibition of TNF-induced NF-κB reporter gene activity” value in assay [1] was “some modest inhibition”. In addition, the “inhibition of PMA/Ionomycin-induced NF-κB luciferase activity” value in assay [2] is recorded as “less potent”. In assay [3], the “effect on PMA/Ionomycin-induced IL-8 production” value is “minimal effect”. As usually defined, the IC50 is the concentration at which inhibition is half-maximal. For the molecule `COc1c(C(C)(C)C)cc(C(=O)Cn2c(NCCCO)nc3cc(C)c(C)cc32)cc1C(C)(C)C` [Compound 32, 1-(3,5-di-tert-butyl-4-methoxyphenyl)-2-(2-(3-hydroxypropylamino)-5,6-dimethyl-1H-benzo[d]imidazol-1-yl)ethanone], the IC50 in assay [2] was found to be 70 nM. As for `COCCCNc1nc2cc(C)c(C)cc2n1CC(=O)c1cc(C(C)(C)C)c(OC)c(C(C)(C)C)c1` [Compound 34, 2-(2-(3-methoxypropylamino)-5,6-dimethyl-1H-benzo[d]imidazol-1-yl)-1-(3,5-di-tert-butyl-4-methoxyphenyl)ethanone], the IC50 in assay [2] was found to be 250 nM. z-ITED-fmk [reference compound]: in assay [2], the “inhibition of PMA/Ionomycin-induced NF-κB luciferase activity” value is “significantly inhibit”. On to `COCCCNc1nc2cc(C)c(C)cc2n1CC(=O)c1cc(C(C)(C)C)c(O)c(C(C)(C)C)c1` [Compound 33, 2-(2-(3-methoxypropylamino)-5,6-dimethyl-1H-benzo[d]imidazol-1-yl)-1-(3,5-di-tert-butyl-4-hydroxyphenyl)ethanone], for which the IC50 in assay [2] stood at 250 nM. In the case of `CCCCNc1nc2cc(C)c(C)cc2n1CC(=O)c1cc(C(C)(C)C)c(O)c(C(C)(C)C)c1` [Compound 40, 1-(3,5-di-tert-butyl-4-hydroxyphenyl)-2-(2-(butylamino)-5,6-dimethyl-1H-benzo[d]imidazol-1-yl)ethanone], the IC50 in assay [2] was 100 nM.
